Assay results published in patent US20220062228A1, “USE OF CARNOSOL FOR INCREASING MUSCLE PROTEIN SYNTHESIS” (Centre National De La Recherche Scientifique, priority 2018, published 2022).
Counter-ions that a name gives are not always drawn.

Key:
[1] = system: human myotubes; assay: culture cell model of human skeletal muscle satellite cells: area of myotubes (troponin T immunofluorescence, Image J); assay type: cell-based; details: for hypertrophic activity on myotubes, comparison with antioxidant compounds: FIG. 8; for hypertrophic activity on myotubes, carnosol compared with carnosic acid: 1 μg/ml and 5 μg/ml, FIG. 9; for hypertrophic activity on myotubes (area of myotubes) / concentration from which hypertrophic activity is exhibited: myotubes from young human subjects; for hypertrophic activity on myotubes (area of myotubes): 5 μg/ml, FIG. 3; for concentration from which hypertrophic activity is exhibited: FIG. 4
Excerpt: (§1) In order to assay the hypertrophic effect on muscle of compounds from vegetal extracts, the inventors have designed a culture cell model of human skeletal muscle satellite cells. The skeletal muscle satellite cells are able to proliferate and to differentiate ex vivo. When cultured in a growth factors rich medium, the skeletal muscle satellite cells proliferate in the form of myoblasts. At confluence, the myoblasts morphologically differentiate by fusing thereby producing long multinucleated cells (myotubes or myofibers) which express muscular protein. Myotubes are able to respond to hypertrophic and atrophic signals by modulating the balance between the protein synthesis (hypertrophy) or the protein degradation (atrophy) (El Haddad M. et al., Cell Mol Life Sci. 2017 May; 74(10):1923-1936).
The recovered skeletal muscle satellite cells used in the culture cell model by the inventors were recovered from a muscular biopsy of young and elderly subjects.
The satellite cells can be easily recovered from a muscle biopsy and cultured ex vivo in dishes where they proliferate as myoblasts and differentiate into myotubes. The biopsy is treated according to an experimental protocol described and validated by us for human skeletal muscle from quadriceps (Kitzmann et al., 2006; El Haddad et al 2017). The biopsy is cut into a fragment of 1 mm^3 and placed in a culture dish treated with type 1 collagen. The explants are trapped inside in a thin layer of Matrigel (BD Matrigel Matrix, BD Biosciences) in 35 mm-collagen coated Petri dishes with growth media (DMEM/F12, supplemented with 10% fetal bovine serum, 0.1% Ultroser G, 1 ng/ml basic FGF, and 10 microg/mL gentamicin). After 6 to 8 days, when cells migrate out of the explants, they are enzymatically harvested using dispase (BD Biosciences) and subcultured in growth medium. Harvested cells are purified by immunomagnetic cell sorting using magnetic activated cell sorter (MACS) microbeads (MiltenyiBiotec) coupled to an antibody against CD56. Usually in protocols of muscle culture cells, muscle differentiation is induced by growing confluent myoblasts in differentiation medium depleted of growth factors. At confluence, myoblasts start to differentiate and differentiation can be evidenced 1) morphologically (after 2 to 4 days), as the fusion of myoblasts generates long giant multinucleated cells (named myotubes) and 2) biochemically, as myotubes express proteins required for muscle contraction. Differentiation is assessed by immunofluorescence using the antibodies against Troponin T and Myogenin, two markers of muscle differentiation. The differentiation status is also confirmed by precisely measuring the expression of three differentiation markers (Myogenin, Sarcomeric Actin and Caveolin by RT-qPCR). Expression of RPLP0 is also quantified as internal control.
Briefly, myoblasts are seeded at 10^5 cells/dish onto 35 mm collagen-coated dishes and cultured in growth medium (DMEM/F12, supplemented with 10% fetal bovine serum, 0.1% Ultroser G, 1 ng/ml basic FGF, and 10 microg/ml gentamicin). Myogenic differentiation of confluent cells was induced after 3 days by changing to DMEM containing 5% FBS (differentiation medium). Cells were kept in differentiation medium for 3 to 4 days.
Then the cells are fixed and the expression of troponin T (a protein of the cytoskeleton which is exclusively expressed by myotubes) is analysed by immuno-fluorescence. Then the area of myotubes is measured using the Image J software. If the area increases the compound has a hypertrophic activity and if the area decreases the compound has an atrophic activity.
The skeletal muscle satellite cells came from young people (aged under 30).

[2] = system: MuRF1; assay: western blot of MuRF1 in myotubes / skeletal muscle cells; assay type: cell-based, human
Excerpt: The muscle protein degradation may be measured by assaying the level of expression of an ubiquitin ligases such as muscle RING-finger protein-1 (MuRF1).

[3] = system: NRF2 pathway; assay: induction of the NRF2 pathway (NRF2, HO-1) in skeletal muscle cells; assay type: cell-based; details: for NRF2 accumulation / full activation of NRF2 pathway by inducing HO-1: skeletal muscle, 6 μM
Excerpt: The regulation of Nrf2 signaling is believed to preserve redox homeostasis and protect the structure and function of skeletal muscle. Nrf2 is a transcription factor, inactivated by Keap-1 in the cytoplasm. Upon activation, Keap1 is degraded, and NRF2 mediates intracellular antioxidant response by binding to the antioxidant response element (ARE) in the promoter of its target genes and induces the expression of a set of antioxidant enzymes, called ‘phase 2 enzymes,’ including heme oxygenase-1 (HO-1). Recently it has been shown that Nrf2 deficiency caused accelerated aging and muscle loss during aging.
Since carnosic acid and carnosol are antioxidants molecules and can activate the NRF2 pathway in several type of cells, it was studied whether carnosic acid and carnosol are capable of inducing NRF2 pathway in skeletal muscle.
In order to know whether NRF2 pathway activation is sufficient to activate hypertrophy in skeletal muscle cells. An assay with DMF (dimethyl Fumarate) has been carried out. Given DMF is a NRF2 activator, if the NRF2 pathway activation is sufficient to activate hypertrophy in skeletal muscle cells then DMF should induce myotube hypertrophy.

[4] = system: MURF1 protein; assay: western blot analysis on muscle extract for MURF1 protein; assay type: in vivo; details: adult C57 BL6 J mice, daily oral dose of 80 mg/Kg for 12 days; FIG. 7
Description: (§2) Hypertrophic Activity of Carnosol In Vivo To investigate whether carnosol can alter skeletal muscle physiology, adult mice (13 weeks old, C57 BL6 J) were treated for 12 days with a daily oral dose of 80 mg/Kg. […] The determination of the fibre areas (CSA) was made using the Myovision software.
Then, a western blot analysis on muscle extract was performed to determine the impact of a carnosol treatment on MURF1 protein.

[5] = system: mTOR pathway; assay: western blot of signaling pathways controlling muscle hypertrophy in myotubes; assay type: cell-based, human; details: FIG. 14
Excerpt: Two main pathways control the regeneration of contractile proteins: • PI3K/Akt/mTOR which is the major pathway of muscle hypertrophy and • pathway of the transcription factors of FOXO family which controls the expression of the genes involved in the proteasome degradation systems and the autophagy (respectively atrogenes and genes of the autophagy).
At the molecular level, it has been established that the activation of the PI3K/Akt/mTOR pathway stimulates the protein synthesis through their anabolizing targets (mTOR, protein S6 kinase 1 (S6K) and the eIF4E-binding proteins (4E-BP) and blocks the ubiquitine E3 of the family of atrogenes MuRF1 and MAFbx mediated proteolysis pathway (FOXO) (Egerman and Glass, Signaling pathways controlling skeletal muscle mass. Crit Rev Biochem Mol Biol. 2014 January-February; 49(1):59-68).

[6] = system: myotube cells from elderly subject; assay: culture cell model with skeletal muscle satellite cells recovered from elderly subjects: area of myotubes; assay type: cell-based, human; details: elderly subjects 1 and 2; carnosol 2 μg/ml; FIG. 5
Excerpt: as §1, with “74(10):1923-1936). […]” for “74(10):1923-1936).”
The satellite cells can be easily recovered from a muscle biopsy and cultured ex vivo in dishes where they proliferate as myoblasts and differentiate into myotubes. […] Differentiation is assessed by immunofluorescence using the antibodies against Troponin T and Myogenin, two markers of muscle differentiation. […] Expression of RPLP0 is also quantified as internal control. […]
Then the cells are fixed and the expression of troponin T (a protein of the cytoskeleton which is exclusively expressed by myotubes) is analysed by immuno-fluorescence. Then the area of myotubes is measured using the Image J software. […]

[7] = system: protein synthesis in myotubes; assay: SUnSET puromycin incorporation western blot (protein synthesis) in the culture cell model; assay type: cell-based, human; details: myotubes stimulated with carnosol, puromycin 30 minutes before recovery; FIG. 13
Description: The synthesis of muscle protein may be measured in vitro by the method disclosed in Schmidt et al., SUnSET, a nonradioactive method to monitor protein synthesis, Nat Methods. 2009 April; 6(4):275-7. Muscle cells were treated with puromycin, 30 minutes before recovering the protein from the cells. Then, a western blot is carried out with anti-puromycin antibodies in order to show the translation rate of the mRNA in the living cells.
The muscular hypertrophic activity of carnosol may result from a global increase of the synthesis of proteins. To study this hypothesis, the culture cell model disclosed above was stimulated with carnosol. Then, 30 minutes before recovering the protein from the cells, the cells were treated with puromycin. The puromycin is incorporated in the neo-synthetized proteins. Then, a western blot was carried out with anti-puromycin antibodies in order to show the translation rate of the mRNA in the living cells (Schmidt et al., SUnSET, a nonradioactive method to monitor protein synthesis. Nat Methods. 2009; 6:275-277) (see FIG. 13).

[8] = system: gastrocnemius muscle; assay: fibre areas (CSA) of gastrocnemius muscle sections, anti-dystrophin staining, Myovision; assay type: in vivo; details: adult C57 BL6 J mice, daily oral dose of 80 mg/Kg for 12 days; FIG. 6
Description: as §2

vitamin D [reference compound]
myotube hypertrophy ([1]; human myotubes treated 48 hours, 10^−7M, FIG. 12): Only carnosol induced myotube hypertrophy

COC(=O)/C=C/C(=O)OC [DMF, dimethyl Fumarate, reference compound]
myotube hypertrophy ([1]; 50 μM, FIG. 15): does not induce repression of MURF1 protein and myotube hypertrophy
repression of MURF1 protein ([2]; skeletal muscle cells, DMF treatment versus carnosol treatment): does not induce repression of MURF1 protein
dose from which the NRF2 pathway is induced ([3]; skeletal muscle cells): > 20 µM
induction of the NRF2 pathway (NRF2 and HO-1) ([3]; skeletal muscle cells): induces the NRF2 pathway

O=C1O[C@H]([C@@H](O)CO)C(O)=C1O [vitamin C, ascorbic acid, reference compound]
hypertrophic activity on myotubes, comparison with antioxidant compounds ([1]; 50 μg/ml): only carnosol has a significant hypertrophic activity

C[C@H]1[C@H](C)CC[C@]2(C(=O)O)CC[C@]3(C)C(=CC[C@@H]4[C@@]5(C)CC[C@H](O)C(C)(C)[C@@H]5CC[C@]43C)[C@H]12 [ursolic acid, reference compound]
hypertrophic activity on myotubes, comparison with antioxidant compounds ([1]; 2 μg/ml): only carnosol has a significant hypertrophic activity

CC(C)C[C@H](N)C(=O)O [leucine, reference compound]
myotube hypertrophy ([1]; human myotubes treated 48 hours, 5 mM, FIG. 10): only carnosol treatment induced myotube hypertrophy

O=C(/C=C/c1ccc(O)c(O)c1)O[C@H](Cc1ccc(O)c(O)c1)C(=O)O [rosmarinic acid, reference compound]
hypertrophic activity on myotubes, comparison with antioxidant compounds ([1]; 2 μg/ml): only carnosol has a significant hypertrophic activity

CC(C)c1cc2c(c(O)c1O)[C@@]1(C(=O)O)CCCC(C)(C)[C@@H]1CC2 [carnosic acid, reference compound]
hypertrophic activity on myotubes, carnosol compared with carnosic acid [1]: the hypertrophic activity of carnosol is significantly higher than the one of carnosic acid
hypertrophic activity on myotubes, comparison with antioxidant compounds ([1]; 2 μg/ml): only carnosol has a significant hypertrophic activity
NRF2 accumulation [3]: both induce NRF2 accumulation
full activation of NRF2 pathway by inducing HO-1 [3]: only carnosol fully activates NRF2 pathway by inducing HO-1

CC(C)c1cc2c(c(O)c1O)[C@@]13CCCC(C)(C)[C@@H]1C[C@@H]2OC3=O [carnosol, Carnosol]
MURF1 protein level in gastrocnemius [4]: down-regulates MURF1 protein level
hypertrophic activity on myotubes, carnosol compared with carnosic acid [1]: the hypertrophic activity of carnosol is significantly higher than the one of carnosic acid
hypertrophic activity on myotubes, comparison with antioxidant compounds ([1]; 2 μg/ml): only carnosol has a significant hypertrophic activity
myotube hypertrophy ([1]; human myotubes treated 48 hours, 1 μg/ml, FIGS. 10-12): only carnosol treatment induced myotube hypertrophy
hypertrophic activity on myotubes (area of myotubes) ([1]; listed as commercially available carnosol): same hypertrophic activity as the fraction C
hypertrophic activity on myotubes (area of myotubes) ([1]; listed as fraction C): active compound was isolated in the fraction C
concentration from which hypertrophic activity is exhibited ([1]; conversion of 0.5 μg/ml): 1 to 2 µM
concentration from which hypertrophic activity is exhibited ([1]; tested 0.25-5 μg/ml): ≥ 0.5 µg/mL
phosphorylation rate of 4EBP1 (p-4EBP1/4EPB1) [5]: increasing the phosphorylation rate
phosphorylation rate of P70 S6 kinase (p-S6K/S6K) [5]: increasing the phosphorylation rate
phosphorylation rate of PS6 (p-S6/S6) [5]: increasing the phosphorylation rate
hypertrophic activity on myotube cells of elderly subjects [6]: has also a hypertrophic activity
MuRF1 expression (degradation of proteins) ([2]; myotubes, western blot, FIG. 14): inhibits strongly the MuRF1 expression
synthesis of protein in muscle cells (puromycin incorporation) [7]: stimulates the synthesis of protein in muscle cells
dose from which the NRF2 pathway is induced ([3]; skeletal muscle cells): ≥ 3 µM
NRF2 accumulation [3]: both induce NRF2 accumulation
full activation of NRF2 pathway by inducing HO-1 [3]: only carnosol fully activates NRF2 pathway by inducing HO-1
diameter of the fibers (fibre area, CSA) of the gastrocnemius [8]: significantly increases the diameter of the fibers

CC(C)(O)CC(=O)O [β-hydroxy-β-methylbutyrate, reference compound]
myotube hypertrophy ([1]; human myotubes treated 48 hours, 25 μM and 100 μM, FIG. 11): only carnosol treatment induced myotube hypertrophy
